Patent publication US20250098679A1, “HERBICIDAL PYRIDONE DERIVATIVES” (SYNGENTA CROP PROTECTION AG, priority 2021, published 2025)

Assays:
Type in all cases: in vivo
Conditions in all cases: evaluated after 13 days
Setaria faberi (SETFA) = experiment: Post-emergence Test, Setaria faberi (SETFA); parameters: key to percentage damage caused to the plant, SETFA (five-point scale): 5=81-100%, 4=61-80%, 3=41-60%, 2=21-40%, 1=0-20% damage
Summary of the method: (§1)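 Pots sprayed with compound in acetone/water (50:50) with 0.5% Tween 20, at 1000 g/ha unless noted, glasshouse 24/16 °C, 14 h light, 65% humidity. Damage scored 13 days after spraying on a five-point scale (5=81-100% to 1=0-20%).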

[1] = tested on: Echinochloa crus-galli (ECHCG); experiment: Post-emergence Test, Echinochloa crus-galli (ECHCG); parameters: key to percentage damage caused to the plant, ECHCG (five-point scale): 5=81-100%, 4=61-80%, 3=41-60%, 2=21-40%, 1=0-20% damage
Summary of the method: as §1

Zea mays (ZEAMX) = experiment: Post-emergence Test, Zea mays (ZEAMX); parameters: key to percentage damage caused to the plant, ZEAMX (five-point scale): 5=81-100%, 4=61-80%, 3=41-60%, 2=21-40%, 1=0-20% damage
Summary of the method: as §1

[2] = tested on: Ipomoea hederacea (IPOHE); experiment: Post-emergence Test, Ipomoea hederacea (IPOHE); parameters: key to percentage damage caused to the plant, IPOHE (five-point scale): 5=81-100%, 4=61-80%, 3=41-60%, 2=21-40%, 1=0-20% damage
Summary of the method: as §1

[3] = tested on: Amaranthus palmeri (AMAPA); experiment: Post-emergence Test, Amaranthus palmeri (AMAPA); parameters: key: 5=81-100%, 4=61-80%, 3=41-60%, 2=21-40%, 1=0-20% damage
Summary of the method: as §1

[4] = tested on: Amaranthus retoflexus (AMARE); experiment: Post-emergence Test, Amaranthus retoflexus (AMARE); parameters: key to percentage damage caused to the plant, AMARE (five-point scale): 5=81-100%, 4=61-80%, 3=41-60%, 2=21-40%, 1=0-20% damage
Summary of the method: as §1

SMILES | percentage damage caused to the plant, SETFA (five-point scale) (Setaria faberi (SETFA); 250 g/Ha) | percentage damage caused to the plant, SETFA (five-point scale) (Setaria faberi (SETFA); 1000 g/ha) | percentage damage caused to the plant, ECHCG (five-point scale) ([1]; 250 g/Ha) | percentage damage caused to the plant, ECHCG (five-point scale) ([1]; 1000 g/ha) | percentage damage caused to the plant, ZEAMX (five-point scale) (Zea mays (ZEAMX); 250 g/Ha) | percentage damage caused to the plant, ZEAMX (five-point scale) (Zea mays (ZEAMX); 1000 g/ha) | percentage damage caused to the plant, IPOHE (five-point scale) ([2]; 250 g/Ha) | percentage damage caused to the plant, IPOHE (five-point scale) ([2]; 1000 g/ha) | percentage damage caused to the plant, AMAPA (five-point scale) ([3]; 250 g/Ha) | percentage damage caused to the plant, AMAPA (five-point scale) ([3]; 1000 g/ha) | percentage damage caused to the plant, AMARE (five-point scale) ([4]; 250 g/Ha) | percentage damage caused to the plant, AMARE (five-point scale) ([4]; 1000 g/ha) | other results
CCn1c(Cn2ccc(C(F)(F)F)n2)cc(=O)c(C(=O)O)c1-c1ccc(N)c(Cl)c1 [Compound 133, 2-(4-amino-3-chloro-phenyl)-1-ethyl-4-oxo-6-[[3-(trifluoromethyl)pyrazol-1-yl]methyl]pyridine-3-carboxylic acid] | 1 (1=0-20%) | 0 | 0 | 0 | 0 | 0 | 0 | 1 (1=0-20%) | 1 (1=0-20%) | 1 (1=0-20%) | 1 (1=0-20%) | 1 (1=0-20%) | –
CCn1c(Cn2cc3ccccc3n2)cc(=O)c(C(=O)O)c1-c1ccc(Cl)c(Cl)c1 [Compound 106, 2-(3,4-dichlorophenyl)-1-ethyl-6-(indazol-2-ylmethyl)-4-oxo-pyridine-3-carboxylic acid] | 0 | 1 (1=0-20%) | 2 (2=21-40%) | 1 (1=0-20%) | 0 | 0 | 0 | 3 (3=41-60%) | 0 | 1 (1=0-20%) | 0 | 1 (1=0-20%) | –
CCn1c(Cn2nc(C(F)(F)F)c3c2CCOC3)cc(=O)c(C(=O)O)c1-c1ccc(Cl)c(Cl)c1 [Compound 107, 2-(3,4-dichlorophenyl)-1-ethyl-4-oxo-6-[[3-(trifluoromethyl)-6,7-dihydro-4H-pyrano[4,3-c]pyrazol-1-yl]methyl]pyridine-3-carboxylic acid] | 0 | 1 (1=0-20%) | 2 (2=21-40%) | 1 (1=0-20%) | 0 | 0 | 0 | 2 (2=21-40%) | 0 | 1 (1=0-20%) | 0 | 1 (1=0-20%) | –
CCn1c(Cn2ccc(NC(C)=O)n2)cc(=O)c(C(=O)O)c1-c1ccc(Cl)c(Cl)c1 [Compound 154, 6-[(3-acetamidopyrazol-1-yl)methyl]-2-(3,4-dichlorophenyl)-1-ethyl-4-oxo-pyridine-3-carboxylic acid] | 0 | 0 | 0 | 0 | 1 (1=0-20%) | 1 (1=0-20%) | 0 | 0 | 0 | 0 | 0 | 0 | –
CCC(=O)Nc1ccn(Cc2cc(=O)c(C(=O)O)c(-c3ccc(Cl)c(Cl)c3)n2CC)n1 [Compound 192, 2-(3,4-dichlorophenyl)-1-ethyl-4-oxo-6-[[3-(propanoylamino)pyrazol-1-yl]methyl]pyridine-3-carboxylic acid] | – | 0 | – | 0 | – | 0 | – | 0 | – | 1 (1=0-20%) | – | 1 (1=0-20%) | –
CCn1c(Cn2cnc(C(=O)OC)c2)cc(=O)c(C(=O)O)c1-c1ccc(Cl)c(Cl)c1 [Compound 76, 2-(3,4-dichlorophenyl)-1-ethyl-6-[(4-methoxycarbonyl-imidazol-1-yl)methyl]-4-oxo-pyridine-3-carboxylic acid] | – | 1 (1=0-20%) | – | 0 | – | 1 (1=0-20%) | – | 0 | – | 1 (1=0-20%) | – | 1 (1=0-20%) | –
CCn1c(C(C)n2ccc(C(F)(F)F)n2)cc(=O)c(C(=O)O)c1-c1ccc(Cl)c(Cl)c1 (stereo not drawn) [Compound 172, 2-(3,4-dichlorophenyl)-1-ethyl-4-oxo-6-[1-[3-(trifluoromethyl)pyrazol-1-yl]ethyl]pyridine-3-carboxylic acid] | – | 1 (1=0-20%) | 0 | – | 0 | 1 (1=0-20%) | 0 | 1 (1=0-20%) | 1 (1=0-20%) | 2 (2=21-40%) | 1 (1=0-20%) | 2 (2=21-40%) | –
CCn1c(Cn2cnc(Cl)c2)cc(=O)c(C(=O)O)c1-c1ccc(Cl)c(Cl)c1 [Compound 74, 6-[(4-chloroimidazol-1-yl)methyl]-2-(3,4-dichlorophenyl)-1-ethyl-4-oxo-pyridine-3-carboxylic acid] | – | 0 | – | 0 | – | 1 (1=0-20%) | – | 0 | – | 0 | – | 0 | –
CCn1c(Cn2ccc(-c3ccco3)n2)cc(=O)c(C(=O)O)c1-c1ccc(Cl)c(Cl)c1 [Compound 200] | – | – | – | – | – | – | – | – | – | – | – | – | Post-emergence Test SETFA, percentage damage caused to the plant (five-point scale) (Setaria faberi (SETFA); 1000 g/ha): 1 (1=0-20%); Post-emergence Test ECHCG, percentage damage caused to the plant (five-point scale) ([1]; 250 g/Ha (*)): 1 (1=0-20%); Post-emergence Test ZEAMX, percentage damage caused to the plant (five-point scale) (Zea mays (ZEAMX); 250 g/Ha (*)): 1 (1=0-20%); Post-emergence Test ZEAMX, percentage damage caused to the plant (five-point scale) (Zea mays (ZEAMX); 1000 g/ha): 1 (1=0-20%); Post-emergence Test IPOHE, percentage damage caused to the plant (five-point scale) ([2]; 250 g/Ha (*)): 0; Post-emergence Test IPOHE, percentage damage caused to the plant (five-point scale) ([2]; 1000 g/ha): 1 (1=0-20%); Post-emergence Test AMAPA, percentage damage caused to the plant (five-point scale) ([3]; 250 g/Ha (*)): 0; Post-emergence Test AMAPA, percentage damage caused to the plant (five-point scale) ([3]; 1000 g/ha): 0; Post-emergence Test AMARE, percentage damage caused to the plant (five-point scale) ([4]; 250 g/Ha (*)): 0; Post-emergence Test AMARE, percentage damage caused to the plant (five-point scale) ([4]; 1000 g/ha): 0
CCn1c(Cn2nc(C(F)F)c3c2CCOC3)cc(=O)c(C(=O)O)c1-c1ccc(Cl)c(Cl)c1 [Compound 87, 2-(3,4-dichlorophenyl)-6-[[3-(difluoromethyl)-6,7-dihydro-4H-pyrano[4,3-c]pyrazol-1-yl]methyl]-1-ethyl-4-oxo-pyridine-3-carboxylic acid] | 0 | 1 (1=0-20%) | 1 (1=0-20%) | 1 (1=0-20%) | 1 (1=0-20%) | 1 (1=0-20%) | 0 | 1 (1=0-20%) | 0 | 2 (2=21-40%) | 0 | 1 (1=0-20%) | –
CCn1c(Cn2nc(C(F)(F)F)cc2C2CC2)cc(=O)c(C(=O)O)c1-c1ccc(Cl)c(Cl)c1 [Compound 184, 6-[[5-cyclopropyl-3-(trifluoromethyl)pyrazol-1-yl]methyl]-2-(3,4-dichlorophenyl)-1-ethyl-4-oxo-pyridine-3-carboxylic acid] | – | 4 (4=61-80%) | 3 (3=41-60%) | – | 1 (1=0-20%) | 3 (3=41-60%) | 1 (1=0-20%) | 4 (4=61-80%) | 1 (1=0-20%) | 3 (3=41-60%) | 1 (1=0-20%) | 3 (3=41-60%) | –
